Columns and labels:
Format in all cases: biochemical
FGFR1 V561M = target: T1, FGFR1 V561M (Homo sapiens, UniProt P11362, V561M); experiment: Assay I: inhibitory activity against FGFR mutants (HTRF KinEASE-TK); settings: Table 1; ATP working concentration 5 μM, substrate TK 1 μM
T1 construct: purchased Signalchem F04-13G
Experimental: (§1) Assay I: Determination of Inhibitory Activity Against FGFR Mutants
(§2) 1×Kinase reaction buffer was formulated with 1×volume of 5× kinase reaction buffer and 4×volume of water; 5 mM MgCl2; and 1 mM DTT.
(§3) 2.3 Screening of Compounds: • 1. […] Adding 1 μl of the compound diluted in buffer to each well, sealing the plate with a sealing membrane and centrifuging the plate at 1000 g for 30 seconds and leaving it at room temperature for 10 minutes. • 6. Formulating 2.5×TK-substrate-biotin and ATP mixture with 1× enzyme reaction buffer and adding 2 μl of K-substrate-biotin/ATP mixture to the reaction plate. • 7. Sealing the plate with a sealing membrane and centrifuging the plate at 1000 g for 30 seconds and allowing it to react at room temperature for 50 minutes. • 8. […] 3. Data Analysis
(§4) 3.3 Calculation of IC50 and plotting of inhibition curves for the compounds.
(§5) The IC50 (half inhibition concentration) of a compound was obtained using the following non-linear fitting equation, wherein data analysis was performed using Graphpad 6.0 software.
(§6) Data were exported from Envision and analyzed manually. The ratios were converted to inhibition rates and IC50 was calculated by Prism GraphPad 6.0 from the inhibition rates. IC50 was calculated again by the ratios to verify accuracy of the results.

FGFR2 V564F = target: T2, FGFR2 V564F (Homo sapiens, UniProt P21802, V564F); experiment: as above; settings: Table 1; ATP working concentration 10 μM, substrate TK 1 μM
T2 construct: purchased Signalchem F05-12FG
T2 sequence (P21802 22-821 V564F): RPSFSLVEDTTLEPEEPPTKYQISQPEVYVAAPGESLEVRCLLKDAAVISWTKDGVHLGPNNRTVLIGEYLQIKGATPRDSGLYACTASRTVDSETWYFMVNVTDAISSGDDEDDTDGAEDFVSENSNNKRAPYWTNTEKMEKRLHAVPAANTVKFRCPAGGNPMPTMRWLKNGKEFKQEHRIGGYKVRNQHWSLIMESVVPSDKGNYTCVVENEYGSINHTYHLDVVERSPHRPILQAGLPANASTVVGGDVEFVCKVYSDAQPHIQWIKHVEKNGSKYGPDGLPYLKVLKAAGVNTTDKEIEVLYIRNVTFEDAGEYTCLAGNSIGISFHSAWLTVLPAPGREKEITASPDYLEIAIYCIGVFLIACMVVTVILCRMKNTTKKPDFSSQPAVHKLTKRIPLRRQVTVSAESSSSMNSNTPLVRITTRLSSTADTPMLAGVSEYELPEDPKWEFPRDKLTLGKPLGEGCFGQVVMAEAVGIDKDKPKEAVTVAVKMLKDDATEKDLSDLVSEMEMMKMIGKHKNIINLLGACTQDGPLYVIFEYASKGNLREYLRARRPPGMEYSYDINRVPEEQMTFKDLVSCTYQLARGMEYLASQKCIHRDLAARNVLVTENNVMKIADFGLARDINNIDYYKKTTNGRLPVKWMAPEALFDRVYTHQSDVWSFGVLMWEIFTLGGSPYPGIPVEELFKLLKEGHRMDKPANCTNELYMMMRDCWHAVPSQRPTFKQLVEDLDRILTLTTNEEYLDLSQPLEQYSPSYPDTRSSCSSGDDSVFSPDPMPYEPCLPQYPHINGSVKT
Experimental: as §1, §2, §3, §4, §5, §6

VEGFR2 = target: T3, VEGFR2 (Homo sapiens, UniProt P35968); experiment: Assay I: kinase inhibition (HTRF KinEASE-TK), VEGFR2; settings: Table 1; ATP working concentration 5 μM, substrate TK 1 μM
T3 construct: purchased Carna 08-191
T3 sequence (P35968 20-1356): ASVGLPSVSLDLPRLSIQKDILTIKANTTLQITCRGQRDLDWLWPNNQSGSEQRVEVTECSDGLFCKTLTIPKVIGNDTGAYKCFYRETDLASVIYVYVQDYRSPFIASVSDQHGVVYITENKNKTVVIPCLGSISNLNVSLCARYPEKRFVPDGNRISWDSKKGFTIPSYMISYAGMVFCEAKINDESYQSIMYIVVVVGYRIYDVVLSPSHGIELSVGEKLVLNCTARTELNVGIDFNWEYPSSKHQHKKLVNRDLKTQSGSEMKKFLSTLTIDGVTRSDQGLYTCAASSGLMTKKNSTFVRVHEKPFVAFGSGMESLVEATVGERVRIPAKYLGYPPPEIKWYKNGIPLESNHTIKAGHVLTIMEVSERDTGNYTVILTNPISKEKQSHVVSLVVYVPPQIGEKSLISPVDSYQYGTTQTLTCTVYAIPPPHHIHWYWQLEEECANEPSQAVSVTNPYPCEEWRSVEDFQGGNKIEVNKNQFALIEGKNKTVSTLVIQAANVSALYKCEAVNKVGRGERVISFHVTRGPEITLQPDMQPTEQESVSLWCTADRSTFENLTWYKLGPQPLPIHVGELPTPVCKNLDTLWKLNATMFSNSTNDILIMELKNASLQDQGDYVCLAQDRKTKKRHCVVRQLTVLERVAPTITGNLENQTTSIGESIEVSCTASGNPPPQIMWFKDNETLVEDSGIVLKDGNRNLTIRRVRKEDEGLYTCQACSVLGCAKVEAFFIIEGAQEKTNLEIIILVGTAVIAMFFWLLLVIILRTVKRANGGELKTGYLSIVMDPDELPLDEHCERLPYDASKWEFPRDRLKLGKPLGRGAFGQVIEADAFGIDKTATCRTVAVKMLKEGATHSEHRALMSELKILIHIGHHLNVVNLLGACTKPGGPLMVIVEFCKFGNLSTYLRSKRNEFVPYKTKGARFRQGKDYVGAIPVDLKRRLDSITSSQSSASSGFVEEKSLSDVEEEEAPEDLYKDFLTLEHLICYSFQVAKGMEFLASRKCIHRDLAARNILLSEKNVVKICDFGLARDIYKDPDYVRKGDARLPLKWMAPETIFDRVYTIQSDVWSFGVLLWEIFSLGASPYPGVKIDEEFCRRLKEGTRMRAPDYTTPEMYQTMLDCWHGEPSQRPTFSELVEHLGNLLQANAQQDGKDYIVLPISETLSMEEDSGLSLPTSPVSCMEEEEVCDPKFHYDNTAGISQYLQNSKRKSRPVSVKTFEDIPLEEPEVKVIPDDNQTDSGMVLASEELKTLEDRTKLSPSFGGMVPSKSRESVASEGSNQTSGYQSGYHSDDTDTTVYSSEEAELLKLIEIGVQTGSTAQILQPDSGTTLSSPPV

FGFR3 V555M = target: T4, FGFR3 V555M (Homo sapiens, UniProt P22607, V555M); experiment: Assay I: inhibitory activity against FGFR mutants (HTRF KinEASE-TK); settings: Table 1; ATP working concentration 20 μM, substrate TK 1 μM
T4 construct: purchased Signalchem F06-12GG
T4 sequence (P22607 23-806 V555M): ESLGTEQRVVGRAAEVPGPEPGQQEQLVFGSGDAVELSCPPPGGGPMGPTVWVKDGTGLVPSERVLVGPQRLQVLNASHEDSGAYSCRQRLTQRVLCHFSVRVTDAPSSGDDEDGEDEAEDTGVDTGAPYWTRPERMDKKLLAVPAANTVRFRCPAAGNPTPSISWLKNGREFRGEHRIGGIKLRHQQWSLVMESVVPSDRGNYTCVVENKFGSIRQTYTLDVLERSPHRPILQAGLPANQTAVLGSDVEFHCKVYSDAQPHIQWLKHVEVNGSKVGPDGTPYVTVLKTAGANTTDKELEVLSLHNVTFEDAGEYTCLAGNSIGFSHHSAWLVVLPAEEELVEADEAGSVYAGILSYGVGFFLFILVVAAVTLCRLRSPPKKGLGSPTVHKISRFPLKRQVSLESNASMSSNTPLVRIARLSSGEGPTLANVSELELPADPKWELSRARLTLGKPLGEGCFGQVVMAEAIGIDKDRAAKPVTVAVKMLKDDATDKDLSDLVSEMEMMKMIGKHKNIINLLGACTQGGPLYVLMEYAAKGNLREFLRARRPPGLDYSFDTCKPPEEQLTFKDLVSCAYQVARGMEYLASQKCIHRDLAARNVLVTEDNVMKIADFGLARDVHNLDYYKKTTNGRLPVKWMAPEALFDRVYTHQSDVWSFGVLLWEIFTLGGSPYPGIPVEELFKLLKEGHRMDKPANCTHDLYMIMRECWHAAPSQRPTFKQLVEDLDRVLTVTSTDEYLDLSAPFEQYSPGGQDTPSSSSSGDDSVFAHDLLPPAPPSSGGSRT
Experimental: as §1, §2
2.3 Screening of Compounds: • 1. Diluting a compound 4-fold in a dilution plate with DMSO, with a starting compound concentration of 2 mM (4 mM for Nentedanib). • 2. Diluting the compound 40-fold into 1× kinase reaction buffer and shaking it on a shaker for 20 minutes. • 3. […] Adding 1 μl of the compound diluted in buffer to each well, sealing the plate with a sealing membrane and centrifuging the plate at 1000 g for 30 seconds and leaving it at room temperature for 10 minutes. • 6. Formulating 2.5×TK-substrate-biotin and ATP mixture with 1× enzyme reaction buffer and adding 2 μl of K-substrate-biotin/ATP mixture to the reaction plate. • 7. Sealing the plate with a sealing membrane and centrifuging the plate at 1000 g for 30 seconds and allowing it to react at room temperature for 50 minutes. • 8. Formulating 4×Sa-XL 665 (250 nM) with HTRF assay buffer. • 9. Adding 5 μl Sa-XL 665 and 5 μl TK-Antibody-Cryptate to each well, centrifuging it at 1000 g for 30 seconds, and allowing it to react for 1 hour at room temperature. • 10. Reading fluorescence signals at 615 nm (Cryptate) and 665 nm (XL665) with Biotek. 3. Data Analysis
3.1 Calculation of the ratio for each well: the ratio was calculated as 665/615 nm.
as §4, §5, §6

FGFR1 = target: T5, FGFR1 (Homo sapiens, UniProt P11362); experiment: Assay II: inhibitory activity against wild-type FGFR (HTRF KinEASE-TK); settings: Table 2, ATP working concentration 50 μM, substrate TK 1 μM
T5 construct: purchased Carna 08-133
T5 sequence (P11362 22-822): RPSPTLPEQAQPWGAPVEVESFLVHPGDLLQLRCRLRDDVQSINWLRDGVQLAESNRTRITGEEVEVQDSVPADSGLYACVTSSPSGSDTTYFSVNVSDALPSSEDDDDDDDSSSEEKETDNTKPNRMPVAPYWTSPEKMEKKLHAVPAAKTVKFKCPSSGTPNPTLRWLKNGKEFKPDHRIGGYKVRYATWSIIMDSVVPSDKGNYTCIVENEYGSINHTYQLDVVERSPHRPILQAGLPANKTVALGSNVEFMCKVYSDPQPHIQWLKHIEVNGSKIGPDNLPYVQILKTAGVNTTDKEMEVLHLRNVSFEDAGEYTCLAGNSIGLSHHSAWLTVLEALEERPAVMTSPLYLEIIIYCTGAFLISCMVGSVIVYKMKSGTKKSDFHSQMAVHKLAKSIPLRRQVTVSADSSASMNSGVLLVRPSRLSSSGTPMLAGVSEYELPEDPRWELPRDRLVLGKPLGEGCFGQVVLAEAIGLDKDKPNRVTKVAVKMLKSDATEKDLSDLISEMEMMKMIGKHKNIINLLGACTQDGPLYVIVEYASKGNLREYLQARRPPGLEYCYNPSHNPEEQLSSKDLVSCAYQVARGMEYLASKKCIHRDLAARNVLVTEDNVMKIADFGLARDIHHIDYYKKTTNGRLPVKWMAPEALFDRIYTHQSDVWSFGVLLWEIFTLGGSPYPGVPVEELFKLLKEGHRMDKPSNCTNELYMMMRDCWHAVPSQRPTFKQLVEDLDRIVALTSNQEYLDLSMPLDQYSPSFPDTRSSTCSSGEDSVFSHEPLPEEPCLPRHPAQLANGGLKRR
Experimental: (§7) Assay II: Determination of inhibitory activity against wild-type FGFR
as §2
(§8) 3. Formulating 2×FGFR1/FGFR2/FGFR3 with 1× of enzyme reaction buffer.
(§9) 4. Adding 2 μl FGFR1/FGFR2/FGFR3 kinase (formulated in step 3) to each well of the reaction plate.
(§10) 5. Adding 1 μl of the compound diluted in buffer to each well, sealing the plate with a sealing membrane and centrifuging the plate at 1000 g for 30 seconds and leaving it at room temperature for 10 minutes.
(§11) 6. Formulating 2.5×TK-substrate-biotin and ATP mixture with 1× enzyme reaction buffer and adding 2 μl of K-substrate-biotin/ATP mixture to the reaction plate.
(§12) 7. Sealing the plate with a sealing membrane and centrifuging the plate at 1000 g for 30 seconds and allowing it to react at room temperature for 50 minutes.
as §4, §5, §6

FGFR2 = target: T6, FGFR2 (Homo sapiens, UniProt P21802); experiment: as above; settings: Table 2, ATP working concentration 50 μM, substrate TK 1 μM
T6 construct: purchased Carna 08-134
T6 sequence (P21802 22-821): as the sequence (P21802 22-821 V564F) above, with F543V counted along it
Experimental: as §7, §2, §8, §9, §10, §11, §12, §4, §5, §6

FGFR3 = target: T7, FGFR3 (Homo sapiens, UniProt P22607); experiment: as above; settings: Table 2, ATP working concentration 50 μM, substrate TK 1 μM
T7 construct: purchased Carna 08-135
T7 sequence (P22607 23-806): as the sequence (P22607 23-806 V555M) above, with M533V counted along it
Experimental: as §7, §2, §8, §9, §10, §11, §12, §4, §5, §6

T1 sequence (P11362 22-822 V561M): as the sequence (P11362 22-822) above, with V540M counted along it

| IC50 (FGFR1 V561M) [nM] | IC50 (FGFR2 V564F) [nM] | IC50 (VEGFR2) [nM] | IC50 (FGFR3 V555M) [nM] | IC50 (FGFR1) [nM] | IC50 (FGFR2) [nM] | IC50 (FGFR3) [nM] | SMILES |
| --- | --- | --- | --- | --- | --- | --- | --- |
| 69.7 | 22.1 | > 10000 | – | – | – | – | CC(Oc1ccc2[nH]nc(C(=O)Nc3ccc(N4CC[C@@H](O)C4)cc3)c2c1)c1c(Cl)cncc1Cl (stereo partly drawn) [Compound 3, 5-(1-(3,5-dichloropyridin-4-yl)ethoxy)-N-(4-((R)-3-hydroxypyrrolidin-1-yl)phenyl)-1H-indazole-3-carboxamide] |
| 9.1 | 0.82 | 327 | 0.88 | – | – | – | CCn1cc(NC(=O)c2n[nH]c3ccc(OC(C)c4c(Cl)cncc4Cl)cc23)cn1 (stereo not shown) [Compound 20, 5-(1-(3,5-dichloropyridin-4-yl)ethoxy)-N-(1-ethyl-1H-pyrazol-4-yl)-1H-indazole-3-carboxamide] |
| 5.6 | 1.1 | 230 | 1.7 | – | – | – | CC(Oc1ccc2[nH]nc(C(=O)Nc3cnn(CCC#N)c3)c2c1)c1c(Cl)cncc1Cl (stereo not shown) [Compound 11, N-(1-(2-cyanoethyl)-1H-pyrazol-4-yl)-5-(1-(3,5-dichloropyridin-4-yl)ethoxy)-1H-indazole-3-carboxamide] |
| 0.27 | 0.09 | 39.4 | 0.15 | – | – | – | CC(Oc1ccc2[nH]nc(C(=O)Nc3cnn(C4CN(C)C4)c3)c2c1)c1c(Cl)cncc1Cl (stereo not shown) [Compound 21, 5-(1-(3,5-dichloropyridin-4-yl)ethoxy)-N-(1-(1-methylazetidin-3-yl)-1H-pyrazol-4-yl)-1H-indazole-3-carboxamide] |
| 0.91 | 0.6 | 179 | 0.79 | – | – | – | CC(Oc1ccc2[nH]nc(C(=O)Nc3cnn(CC4CCN(C)CC4)c3)c2c1)c1c(Cl)cncc1Cl (stereo not shown) [Compound 22] |
| 0.35 | 0.24 | 63.4 | 0.27 | – | – | – | CC(Oc1ccc2[nH]nc(C(=O)Nc3cnn(CCN4CCOCC4)c3)c2c1)c1c(Cl)cncc1Cl (stereo not shown) [Compound 19, 5-(1-(3,5-dichloropyridin-4-yl)ethoxy)-N-(1-(2-morpholinoethyl)-1H-pyrazol-4-yl)-1H-indazole-3-carboxamide] |
| 1.7 | 3.2 | 1390 | 2 | 64.5 | 48 | 98.8 | CCN1CCN(c2ccc(NC(=O)c3n[nH]c4ccc(OC(C)c5c(Cl)cncc5Cl)cc34)cc2)CC1 (stereo not shown) [Compound 10, 5-(1-(3,5-dichloropyridin-4-yl)ethoxy)-N-(4-(4-ethylpiperazin-1-yl)phenyl)-1H-indazole-3-carboxamide] |
| 5.2 | 0.42 | 97.6 | 0.73 | 27.5 | 7.6 | 42.6 | C[C@@H](Oc1ccc2[nH]nc(C(=O)Nc3cnn(CCO)c3)c2c1)c1c(Cl)cncc1Cl [Compound 7, (R)-5-(1-(3,5-dichloropyridin-4-yl)ethoxy)-N-(1-(2-hydroxyethyl)-1H-pyrazol-4-yl)-1H-indazole-3-carboxamide] |
| 1.6 | 0.63 | 141 | 1.1 | – | – | – | CCN1CCC(c2ccc(NC(=O)c3n[nH]c4ccc(OC(C)c5c(Cl)cncc5Cl)cc34)cc2)CC1 (stereo not shown) [Compound 18, 5-(1-(3,5-dichloropyridin-4-yl)ethoxy)-N-(4-(1-ethylpiperidin-4-yl)phenyl)-1H-indazole-3-carboxamide] |
| 1.9 | 0.48 | 208 | 0.74 | 45.1 | 24.5 | 42.9 | CC(Oc1ccc2[nH]nc(C(=O)Nc3cnn(C4CC(O)C4)c3)c2c1)c1c(Cl)cncc1Cl (stereo not shown) [Compound 12, 5-(1-(3,5-dichloropyridin-4-yl)ethoxy)-N-(1-(3-hydroxycyclobutyl)-1H-pyrazol-4-yl)-1H-indazole-3-carboxamide] |
| 1 | 0.94 | 152 | 1.1 | 61 | 48.7 | 102 | CC(Oc1ccc2[nH]nc(C(=O)Nc3ccc(N4CCN(C)CC4)cc3)c2c1)c1c(Cl)cncc1Cl (stereo not shown) [Compound 9, 5-(1-(3,5-dichloropyridin-4-yl)ethoxy)-N-(4-(4-methylpiperazin-1-yl)phenyl)-1H-indazole-3-carboxamide] |
| 2.3 | 4 | 224 | 2.6 | 69.7 | 58.6 | 106 | CC(Oc1ccc2[nH]nc(C(=O)Nc3ccc(N4C[C@@H](C)N[C@@H](C)C4)nc3)c2c1)c1c(Cl)cncc1Cl (stereo partly drawn) [Compound 8, 5-(1-(3,5-dichloropyridin-4-yl)ethoxy)-N-(6-((3S, 5R)-3,5-dimethylpiperazin-1-yl)pyridin-3-yl)-1H-indazole-3-carboxamide] |
| 8.6 | 2.3 | 173 | 6.9 | – | – | – | CC(Oc1ccc2[nH]nc(C(=O)Nc3ccc(N4C[C@@H](C)N[C@@H](C)C4)c(F)c3)c2c1)c1c(Cl)cncc1Cl (stereo partly drawn) [Compound 17, 5-(1-(3,5-dichloropyridin-4-yl)ethoxy)-N-(4-((3S, 5R)-3,5-dimethylpiperazin-1-yl)-3-fluorophenyl)-1H-indazole-3-carboxamide] |
| 22.8 | 34.1 | 1210 | 41.7 | – | – | – | CC(Oc1ccc2[nH]nc(C(=O)Nc3ccc(N4C[C@@H](C)N[C@@H](C)C4)cn3)c2c1)c1c(Cl)cncc1Cl (stereo partly drawn) [Compound 16, 5-(1-(3,5-dichloropyridin-4-yl)ethoxy)-N-(5-((3S, 5R)-3,5-dimethylpiperazin-1-yl)pyridin-2-yl)-1H-indazole-3-carboxamide] |
| 2.2 | 0.84 | 66.2 | 2.1 | – | – | – | CC(Oc1ccc2[nH]nc(C(=O)Nc3cnn(CCC4(O)CC4)c3)c2c1)c1c(Cl)cncc1Cl (stereo not shown) [Compound 15, 5-(1-(3,5-dichloropyridin-4-yl)ethoxy)-N-(1-(2-(1-hydroxycyclopropyl)ethyl)-1H-pyrazol-4-yl)-1H-indazole-3-carboxamide] |
| 95.1 | 9.5 | 1590 | – | – | – | – | CC(Oc1ccc2[nH]nc(C(=O)Nc3ccc(N4CCOCC4)nc3)c2c1)c1c(Cl)cncc1Cl (stereo not shown) [Compound 4, 5-(1-(3,5-dichloropyridin-4-yl)ethoxy)-N-(6-morpholinopyridin-3-yl)-1H-indazole-3-carboxamide] |
| 6.8 | 8.9 | > 10000 | 5.9 | – | – | – | CC(Oc1ccc2[nH]nc(C(=O)Nc3ccc(N4CCC(O)CC4)cc3)c2c1)c1c(Cl)cncc1Cl (stereo not shown) [Compound 13, 5-(1-(3,5-dichloropyridin-4-yl)ethoxy)-N-(4-(4-hydroxypiperidin-1-yl)phenyl)-1H-indazole-3-carboxamide] |
| 0.47 | 0.14 | 24.7 | 0.27 | 11.1 | 9.5 | 19.2 | CC(Oc1ccc2[nH]nc(C(=O)Nc3cnn(C4CCN(C)CC4)c3)c2c1)c1c(Cl)cncc1Cl (stereo not shown) [Compound 14, 5-(1-(3,5-dichloropyridin-4-yl)ethoxy)-N-(1-(1-methylpiperidin-4-yl)-1H-pyrazol-4-yl)-1H-indazole-3-carboxamide] |
